pIC50: −log10 of the molar value.
Experiments:
[1] = target: T1, Na^+/H^+ exchanger (NHE) (Rattus norvegicus, UniProt P26431); experiment: NHE inhibitory effect test (swelling of rat platelets induced by sodium propionate); assay type: cell-based; conditions: rat platelet-rich plasma, sodium propionate buffer pH 6.7; 300 μM Amiloride taken as 100% inhibition; Probit method
T1 construct: from tissue; host or cells: platelet-rich plasma from Wistar rat blood
Description: The NHE inhibitory activity was measured according to the method by Scholz et al. [British Journal of Pharmacology, Vol. 109, p. 562-568 (1993)], taking the swelling of rat platelets induced by sodium propionate as an index.
Under etherization, blood was collected (8 mL) from the abdominal aorta of a Wistar rat, and 1 mL of a citrate dextrose solution as an anticoagulant was added. The blood sample was immediately centrifuged at 90×g for 10 minutes, and then the collected supernatant was taken as platelet-rich plasma. Subsequently, to 250 μL of a 140 mM sodium propionate buffer solution containing the test compound dissolved in dimethylsulfoxide (pH 6.7, final dimethylsulfoxide concentration 1%), the platelet-rich plasma prepared in the above (number of platelet; 10×10^6/50 μL) was added, and the decrease in the absorbance associated with the swelling of platelets was measured over time with a Hematracer (NKK Corp.).
The rate of decrease in the absorbance at 20 seconds after the addition of the platelet-rich plasma was taken as the NHE activity, and the inhibitory activity of the respective compounds was expressed as a relative activity, while the action obtained upon addition of 300 μM of Amiloride was taken as 100% inhibition.
In addition, the test results were obtained by calculating the concentration at which the inhibitory activity of the test compound becomes 50% (IC50 value), by a Probit method.

[2] = system: reperfusion-induced arrhythmia upon myocardial ischemia; experiment: Reperfusion-induced arrhythmia inhibitory action test; assay type: in vivo, rat; conditions: male SD rats, 3.62 mmol/L, 1 mL/kg intravenous, within 10 minutes after reperfusion
Description: Subsequently, in evaluation of the in vivo NHE inhibitory action, the effect of the test compound on reperfusion-induced arrhythmia upon myocardial ischemia was evaluated according to the method of Aihara et al. [European Journal of Pharmacology, Vol. 404, p. 221-229 (2000)]. Under anesthesia using pentobarbital sodium (60 mg/kg, intraperitoneal administration), cannulae were inserted into trachea, femoral vein and carotid artery of male SD rats ([…]) for artificial ventilation, drug administration and blood pressure measurement, respectively. The blood pressure was measured using a strain pressure amplifier via a pressure transducer, while the heart rate was measured from the blood pressure pulse wave using a cardiotachometer. Furthermore, an electrocardiogram (lead II) was measured from the electrodes attached to each four limbs. Next, under artificial ventilation, left thoracotomy was performed and a snare (5-0 nylon) was loosely placed around a blood vessel which was about 3 mm apart from the origin of the left coronary artery. Thereafter, it was confirmed that arrhythmia was not occurred for 10 minutes, and then the snare was fastened to induce local myocardial ischemia. Furthermore, after 4 minutes of myocardial ischemia, the compound was intravenously administered for 1 minute, and after 5 minutes of myocardial ischemia, the snare was loosened, then the arrhythmia occurred after reperfusion was recorded and analyzed with an arrhythmia analyzer (Softron Co., Ltd.), thereby the anti-arrhythmic action of the compound was evaluated. […] The control group was administered with physiological saline.
With regard to the ventricular fibrillation (Vf) which occurred within 10 minutes after reperfusion (in the cases of halfway death, up to the time point where cardiac arrest was confirmed), arrhythmia analysis was performed according to the Guidelines for Lambeth Convention [Cardiovascular research, Vol. 22, p. 447-455, 1988], and evaluation was made in terms of the frequency of Vf occurrence, cumulative duration time of Vf, and the mortality.
The frequency of Vf occurrence, cumulative duration of Vf, and the mortality for the respective test compounds are presented in Table 2.

[3] = Metabolic stability test in rat (generation of control compound in plasma); assay type: in vivo; conditions: male SD rats
Source text: The compound represented by Formula (1) of the present invention has a structure in which the hydroxyl group on the 9-position of a 9-hydroxymethyl-cyclohepta[b]pyridine-3-carbonylguanidine derivative is converted to a specific substituent. However, if the compound is metabolized in vivo to remove the specific substituent from the compound, there may be generated the original 9-hydroxymethyl-cyclohepta[b]pyridine-3-carbonylguanidine derivative, which has toxic effects on the central nervous system. Thus, the inventive compounds as synthesized in Examples were administered in vivo to study whether the control compound, which was the corresponding 9-hydroxymethyl product, was generated.
Male SD rats (7 weeks old) were administered at 1 mg/kg (an amount calculated excluding salts) of the control compound, an equivalent amount of the Inventive Compound 2, 4, 6, 7 or 12, or Reference Compound 20, through the tail vein. After administration, about 0.2 mL of blood samples were collected after 5, 15, 30, 60 and 120 minutes, and the blood samples were centrifuged at 4° C. at a speed of rotation of 15000 for 15 minutes, thus to separate the supernatant plasma. The concentration of the control compound in the plasma was measured by LC/MS/MS. The measurement results were shown as +++ when the detected plasma concentration of the control compound is 200 ng/mL or greater; ++ for more than 100 ng/mL and less than 200 ng/mL; + for more than 20 ng/mL and less than 100 ng/mL; and − for less than 20 ng/mL or no detection.

[4] = system: male mice; experiment: Toxicity test with 2-days repeated intraperitoneal administration in mouse; assay type: in vivo; conditions: equivalent of 300 mg/kg control compound intraperitoneally once a day for 2 days
Description: For three male mice in each group, 300 mg/kg of the Control Compound (an amount calculated excluding salts), or an equivalent amount of the Inventive Compound 2, 4, 6, 7 or 12 were intraperitoneally administered once a day for 2 days, and a histopathological tests were performed. The Control Compound, and the Inventive Compounds 2, 4 and 6 were suspended in a 0.5% tragacanth gum solution, and the Inventive Compound 7 was suspended in a 10 DMSO-containing 0.5% tragacanth gum solution, while the Inventive Compound 12 was suspended in olive oil. For the histopathological test, in order to make a more thorough examination of central nervous toxicity, the brain was examined after whole body was subjected to perfusion fixation with a 4% formaldehyde in neutral phosphate buffer as a fixing solution using a liquid transporting pump under pentobarbital sodium anesthesia.

[5] = system: Beagle dogs; experiment: Toxicity test after 4-days repeated intravenous administration in beagle dogs; assay type: in vivo, dog; conditions: equivalent of 30 mg/kg control compound intravenously once a day for 4 days
Description: With one male and one female dogs in each group, 30 mg/kg of the Control Compound dissolved in physiological saline (an amount calculated excluding salts), or an equivalent amount of the Inventive Compound 2, 4, 6 or 8 was repeatedly administered intravenously once a day for 4 days, and general symptom observation and pharmacological histopathologic examination were performed.

[6] = Comparative test for transferability to the brain in rat; assay type: in vivo; conditions: male SD rats, 50 mg/kg via tail vein
Description: To male SD rats (6 weeks old), the Control Compound or the Inventive Compound 2 was administered through the tail vein in an amount of 50 mg/kg. After administration, whole blood samples were collected over time from the abdominal aorta under etherization, and the brain tissues were extracted immediately. The brain tissues were lightly washed off to remove the blood attached around with physiological saline, and subsequently the tissues were frozen in liquid nitrogen and preserved at −30° C. until analyzed. The blood was centrifuged at 4° C. at a rotation speed of 15000 for 15 minutes to separate the supernatant plasma, and was preserved at −30° C. until analyzed. The brain tissues were thawed by standing at ambient temperature, and then the wet weight was measured. Distilled water was added in an amount five times of the wet weight, and a suspension was prepared using a Polytron homogenizer. The measurement of the test compound concentration in the plasma and the brain tissues was performed by LC/MS/MS. The transferability of the drug to the brain was calculated by dividing the drug concentration in the brain tissues by the plasma concentration obtained at the same time.

T1 sequence (P26431 whole entry): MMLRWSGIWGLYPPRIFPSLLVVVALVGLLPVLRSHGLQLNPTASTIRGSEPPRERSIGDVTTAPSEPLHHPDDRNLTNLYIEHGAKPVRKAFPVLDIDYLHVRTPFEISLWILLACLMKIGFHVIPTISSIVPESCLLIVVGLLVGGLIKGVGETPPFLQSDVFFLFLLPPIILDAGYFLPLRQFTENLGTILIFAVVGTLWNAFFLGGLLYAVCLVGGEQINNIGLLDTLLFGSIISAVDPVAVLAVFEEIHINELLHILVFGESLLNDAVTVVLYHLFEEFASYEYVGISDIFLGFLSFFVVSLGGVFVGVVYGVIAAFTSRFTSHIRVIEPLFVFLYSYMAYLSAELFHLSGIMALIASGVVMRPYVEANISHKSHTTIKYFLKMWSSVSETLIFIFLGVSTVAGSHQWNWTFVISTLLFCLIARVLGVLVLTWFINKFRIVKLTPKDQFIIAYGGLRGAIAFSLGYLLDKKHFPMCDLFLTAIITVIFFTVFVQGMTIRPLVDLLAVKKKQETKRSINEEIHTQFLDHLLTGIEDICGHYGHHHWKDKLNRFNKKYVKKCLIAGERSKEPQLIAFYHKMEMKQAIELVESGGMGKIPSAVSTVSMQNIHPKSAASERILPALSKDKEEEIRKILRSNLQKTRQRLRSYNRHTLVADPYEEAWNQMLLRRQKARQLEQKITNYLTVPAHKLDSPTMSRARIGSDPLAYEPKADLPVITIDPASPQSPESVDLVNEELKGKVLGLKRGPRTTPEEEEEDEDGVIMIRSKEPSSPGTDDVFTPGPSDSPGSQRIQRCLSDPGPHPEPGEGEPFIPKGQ

Compound: Cc1nc2c(cc1C(=O)NC(=N)N)CCCCC2COS(=O)(=O)[O-].[Na+] (stereo not drawn) [Inventive Compound 2, 3-Guanidinocarbonyl-2-methyl-6,7,8,9-tetrahydro-5H-cyclohepta[b]pyridin-9-ylmethyl sulfate sodium salt]
- pIC50 [1]: 6.84
- Cumulative duration of Vf [2]: 13.7 s
- Frequency of Vf occurrence [2]: 40%
- Mortality [2]: 20%
- Plasma concentration of the control compound, after 5 min ([3]; equivalent of 1 mg/kg control compound via tail vein, LC/MS/MS, 5 min): − (− for less than 20 ng/mL or no detection)
- Plasma concentration of the control compound, after 15 min ([3]; equivalent of 1 mg/kg control compound via tail vein, LC/MS/MS, 15 min): − (− for less than 20 ng/mL or no detection)
- Plasma concentration of the control compound, after 30 min ([3]; equivalent of 1 mg/kg control compound via tail vein, LC/MS/MS, 30 min): − (− for less than 20 ng/mL or no detection)
- Plasma concentration of the control compound, after 60 min ([3]; equivalent of 1 mg/kg control compound via tail vein, LC/MS/MS, 60 min): − (− for less than 20 ng/mL or no detection)
- Plasma concentration of the control compound, after 120 min ([3]; equivalent of 1 mg/kg control compound via tail vein, LC/MS/MS, 120 min): − (− for less than 20 ng/mL or no detection)
- Decomposition into the Control Compound in vivo (in words) ([3]; tail vein, plasma 5-120 min): not detected at any time point
- Histopathological finding in the brain [4]: any histologic finding which could be caused by drug administration was not recognized
- General condition (symptom observation) [5]: only vomiting was recognized
- Pathologic examination of the brain [5]: any histologic finding which could be caused by drug administration was not recognized
- Transferability to the brain tissues (in words) ([6]; compared with the Control Compound): decreased transferability to the brain tissues
- Kp at 15 min ([6]; rat, brain/plasma, intravenous, 15 min, read-out: Concentration Intracerebral/Plasma, after 15 min): 0.29
